Paper PMC8913300, “Two distinct classes of cochaperones compete for the EEVD motif in heat shock protein 70 to tune its chaperone activities” (The Journal of Biological Chemistry, 2022)

Legend:
DnaJB4 = target: T1, DnaJB4 (Homo sapiens, UniProt Q9UDY4); experiment: Fluorescence polarization saturation binding of Hsp72 tracer to DnaJB4; details: Fig. 8A right; FP saturation binding, 20 nM tracer, JDP binding buffer pH 8.0, 30 min room temperature; mean with 95% confidence interval, four replicates
T1 construct: 6-His with TEV-cleavable linker (N, cleaved yes); made in house; host or cells: Escherichia coli BL21 (DE3) Rosetta
Protocol: (§1) All FP experiments were performed in 384-well, black, low-volume, round-bottom plates at a final assay volume of 18 μl (Corning 4511). Polarization values in millipolarization units (mP) were measured at an excitation wavelength of 485 nm and an emission wavelength of 525 nm, with 100 flashes per read using a Spectramax M5 plate reader (Molecular Devices). All experiments were performed 2 times in quadruplicate. Experimental data were analyzed using GraphPad Prism 9. Saturation binding data were background subtracted, and curves were fit using the model [Agonist] versus response (three parameters). For competition experiments, data were background subtracted to tracer alone and normalized to DMSO control to determine relative tracer displacement.
(§2) A sample of 20 nM Hsp72 tracers (FITC-Ahx-GSGPTIEEVD or FITC-Ahx-GSGPEIEEVD) was incubated with various concentrations of DnaJB4 (WT or QPD mutant) or CHIP in 2× dilutions (final [protein] = 110–0.013 μM) in binding buffer (JDP binding buffer = 50 mM Tris, 15 mM NaCl, 1 mM DTT, 0.01% Triton X-100, pH 8.0; CHIP binding buffer = 25 mM Hepes, 50 mM KCl, 0.01% Triton X-100, pH 7.4). The plate was covered from light and allowed to incubate at room temperature for 30 min prior to reading.

DnaJB4 QPD mutant = target: T2, DnaJB4 QPD mutant (Homo sapiens, UniProt Q9UDY4, H32Q); experiment: Fluorescence polarization saturation binding of Hsp72 tracer to DnaJB4 QPD mutant; details: Fig. 2D, FP saturation binding, 20 nM tracer, 30 min room temperature, mean with 95% confidence interval, four replicates
T2 construct: 6-His with TEV-cleavable linker (N, cleaved yes); made in house; host or cells: Escherichia coli BL21 (DE3) Rosetta
Protocol: as §1, §2

Hsp72–DnaJB4 complex [1] = experiment: CHIP inhibition of DnaJB4-stimulated Hsp72 ATPase activity; format: biochemical; details: 25 μM CHIP, 40-fold excess relative to DnaJB4 (625 nM)
Protocol: ATPase assays were carried out using the malachite green assay as described ([14], [83]). In brief, 1 μM Hsp72 and various concentrations of DnaJB4 were added to clear 96-well plates, and the reactions were initiated by addition of 2.5 mM ATP. Reactions were allowed to proceed for 1 h at 37 °C, after which they were developed using malachite green reagent and quenched with sodium citrate. Plate absorbance was measured at 620 nm, and a standard curve of sodium phosphate was used to convert the absorbance values to pmol ATP/μM Hsp72/min. Vmax and Km, app were derived as fit parameters to a modified Michaelis–Menten model (ATPase rate=Vmax∗[DnaJB4]/(Km, app+[DnaJB4])) where Vmax reflects the maximal increased ATP hydrolysis conferred by DnaJB4 binding and Km,app represents the half-maximal concentration of DnaJB4 binding to and stimulating the ATPase activity of Hsp72.

Hsp72–DnaJB4 complex [2] = experiment: Luciferase refolding by Hsp72/DnaJB4 in the presence of TPR cochaperones; format: biochemical; details: 1 μM Hsp72, 100 nM denatured luciferase, 120 nM DnaJB4; CHIP titration or 10 μM TPR protein; 1 h at 37 °C
Protocol: Experiments were performed as described ([14]). Briefly, Renilla luciferase (Promega) was denatured in 8 M GdnHCl for 2 h at room temperature. Hsp72 (1 μM) and denatured luciferase (100 nM) were diluted into a working concentration in buffer containing an ATP regenerating system (23 mM Hepes, 120 mM KAc, 1.2 mM MgAc, 15 mM DTT, 61 mM creatine phosphate, 35 units/ml creatine kinase, and 5 ng/μl bovine serum albumin, pH 7.4). A titration series of DnaJB4 was added, and the reaction was initiated with the addition of 2.5 mM ATP. For competition assays with DnaJB4, complexes of Hsp72 (1 μM), denatured luciferase (100 nM), and DnaJB4 (120 nM) were incubated with either a titration of CHIP or 10 μM of indicated TPR protein. In all cases, the assay was allowed to incubate for 1 h at 37 °C in white, 96-well flat-bottom plates (Corning 3990). Luminescence was measured using the SteadyGlo luminescence reagent (Promega), and percent refolded luciferase was calculated using a standard curve of 100 to 0 nM native luciferase.

T1 sequence (Q9UDY4 whole entry): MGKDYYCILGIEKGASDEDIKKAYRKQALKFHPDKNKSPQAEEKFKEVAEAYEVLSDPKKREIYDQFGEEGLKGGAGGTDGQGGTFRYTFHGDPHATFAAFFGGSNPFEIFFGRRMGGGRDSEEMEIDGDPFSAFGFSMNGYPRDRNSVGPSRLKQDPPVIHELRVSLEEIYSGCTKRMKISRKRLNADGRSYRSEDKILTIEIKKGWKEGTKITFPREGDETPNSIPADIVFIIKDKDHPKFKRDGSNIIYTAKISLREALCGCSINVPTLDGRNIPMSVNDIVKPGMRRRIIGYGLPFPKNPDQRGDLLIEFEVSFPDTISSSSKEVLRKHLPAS
T2 sequence (Q9UDY4 whole entry H32Q): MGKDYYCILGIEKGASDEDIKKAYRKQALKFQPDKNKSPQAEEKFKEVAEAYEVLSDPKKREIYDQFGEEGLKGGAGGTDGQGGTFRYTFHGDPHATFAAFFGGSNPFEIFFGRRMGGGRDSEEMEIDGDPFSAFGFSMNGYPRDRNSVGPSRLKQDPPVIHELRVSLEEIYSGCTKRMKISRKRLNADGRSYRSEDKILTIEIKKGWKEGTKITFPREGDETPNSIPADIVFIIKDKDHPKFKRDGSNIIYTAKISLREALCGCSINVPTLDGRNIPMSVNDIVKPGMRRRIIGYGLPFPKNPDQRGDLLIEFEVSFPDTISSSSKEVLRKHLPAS

| Compound | Kd (DnaJB4) [µM] | Kd (DnaJB4 QPD mutant) [µM] | inhibition of DnaJB4-stimulated ATPase activity (Hsp72–DnaJB4 complex [1]) | effect on client (luciferase) refolding by Hsp72–DnaJB4 (Hsp72–DnaJB4 complex [2]) |
| --- | --- | --- | --- | --- |
| CC[C@H](C)[C@H](NC(=O)[C@@H](NC(=O)[C@@H]1CCCN1C(=O)CNC(=O)[C@H](CO)NC(=O)CNC(=O)CCCCCNC(=S)Nc1ccc2c(c1)C(=O)OC21c2ccc(O)cc2Oc2cc(O)ccc21)[C@@H](C)O)C(=O)N[C@@H](CCC(=O)O)C(=O)N[C@@H](CCC(=O)O)C(=O)N[C@H](C(=O)N[C@@H](CC(=O)O)C(=O)O)C(C)C [Hsp72 tracer] | 1.97 ± 0.28 | 2.44 ± 0.28 | – | – |
| CHIP: C terminus of Hsc70 interacting protein, E3 ubiquitin ligase, TPR cochaperone, recombinant human | – | – | significant inhibition | potent inhibitor |
